Laboratory results taken from patent US20240343677A1, “L-ASPARTIC ACID N, N-DIACETIC ACID TETRASODIUM SALT AND PREPARATION METHOD THEREFOR” (HEFEI ALL-PLUS ENVIRONMENTAL TECNOLOGY CO., LTD., priority 2021, published 2024).

Legend:
[1] = Method: FIG. 4 is a thermogravimetric analysis graph of the ASDA prepared in Example 1 of the present disclosure;
3. Thermal stability and application environment adaptability of the L-aspartic acid N,N-diacetic acid tetrasodium salt (ASDA) prepared by the preparation method provided in Example 1 were detected. […] The thermal stability of ASDA-Na4 powder was measured by thermogravimetric analysis (TGA) and differential scanning calorimetry (DSC).

[2] = Chelating ability for metal ions compared with other chelating agents; type: physicochemical; settings: same condition as other chelating agents (FIG. 5)
[3] = Solubility in water of different pH values and in concentrated sodium hydroxide solution; type: physicochemical; settings: ASDA of Example 1
Excerpt: It can also correspondingly reduce transportation and warehousing costs, and alleviate the problem of high transportation and warehousing costs.

[4] = Biodegradability of ASDA in sewage according to OECD 301B standard; settings: 28 days, third-party detection, ASDA of Example 1
Method: FIG. 1 is a graph of biodegradability detection results of ASDA prepared in Example 1 of the present disclosure tested in a stable sewage environment;
1. […] The detection was carried out by a third-party detection mechanism.

[5] = Efficiency of removing calcium carbonate water scales; settings: compared with other amino polymeric chelating agents (FIG. 6)
Excerpt: 5. The ASDA can also be used for preventing water scale and precipitation and removing water scale.

moisture lost ([1]; ASDA solid, all moisture lost at about 250° C., TGA)	temperature above which rapid decomposition begins ([1]; ASDA-Na4 powder, TGA/DSC)	solubility under a strong alkali condition ([3]; concentrated sodium hydroxide solution (FIG. 3))	solubility in low pH ([3]; water, low pH (FIG. 2))	28-day biodegradability [4]	thermal stability (thermally more stable than ASDA) [1]	SMILES	comprehensive performance in chelating metal ions [2]	efficiency of removing CaCO3 scales [5]
about 4%	above 380 °C	high solubility	high solubility	≥ 60%		O=C([O-])C[C@@H](C(=O)[O-])N(CC(=O)[O-])CC(=O)[O-].[Na+].[Na+].[Na+].[Na+] [ASDA, L-aspartic acid N,N-diacetic acid tetrasodium salt]	excellent	the best biodegradable chelate for removing CaCO3 scales
					> 150 °C	O=C(O)CN(CCN(CC(=O)O)CC(=O)O)CC(=O)O [EDTA, ethylenediaminetetraacetic acid, reference compound]		
					> 150 °C	O=C(O)CN(CC(=O)O)CC(=O)O [NTA, nitrilotriacetic acid, reference compound]		
